Values of other authors as cited in publication PMC4168221 (Clinical Drug Investigation, 2014).

How the values were obtained:
[1] = tested on: urinary glucose excretion; conditions: cited from earlier work
[2] = cited from earlier work

OC[C@H]1O[C@@H](c2ccc(F)c(Cc3cc4ccccc4s3)c2)[C@H](O)[C@@H](O)[C@@H]1O [Ipragliflozin]
UGE in each estimated GFR (eGFR) class [1]: significantly increased

CCOc1ccc(Cc2cc([C@@H]3O[C@H](CO)[C@@H](O)[C@H](O)[C@H]3O)ccc2Cl)cc1 [dapagliflozin]
C max and AUC as a function of renal function [2]: increased incrementally with declining renal function

OC[C@H]1O[C@@H](c2ccc(Cl)c(Cc3ccc(O[C@H]4CCOC4)cc3)c2)[C@H](O)[C@@H](O)[C@@H]1O [empagliflozin]
CLR in patients with moderate renal impairment [2]: decreased | systemic exposure in patients with moderate renal impairment [2]: moderately increased
